From ChEMBL document CHEMBL5126555, “Targeting breast cancer resistance protein (BCRP/ABCG2): Functional inhibitors and expression modulators” (Eur J Med Chem, 2022)
Each block holds one compound with its values, some of them ahead of it.

Experiments:
[1] = target: T1, Broad substrate specificity ATP-binding cassette transporter ABCG2 (Homo sapiens, UniProt Q9UNQ0); assay: Inhibition of ABCG2 (unknown origin) expressed in human K562 cells assessed as extrusion of Hoechst 33342 using Hoechst 33342 as substrate by flow cytometry; type: cell-based
T1 sequence (Q9UNQ0 whole entry): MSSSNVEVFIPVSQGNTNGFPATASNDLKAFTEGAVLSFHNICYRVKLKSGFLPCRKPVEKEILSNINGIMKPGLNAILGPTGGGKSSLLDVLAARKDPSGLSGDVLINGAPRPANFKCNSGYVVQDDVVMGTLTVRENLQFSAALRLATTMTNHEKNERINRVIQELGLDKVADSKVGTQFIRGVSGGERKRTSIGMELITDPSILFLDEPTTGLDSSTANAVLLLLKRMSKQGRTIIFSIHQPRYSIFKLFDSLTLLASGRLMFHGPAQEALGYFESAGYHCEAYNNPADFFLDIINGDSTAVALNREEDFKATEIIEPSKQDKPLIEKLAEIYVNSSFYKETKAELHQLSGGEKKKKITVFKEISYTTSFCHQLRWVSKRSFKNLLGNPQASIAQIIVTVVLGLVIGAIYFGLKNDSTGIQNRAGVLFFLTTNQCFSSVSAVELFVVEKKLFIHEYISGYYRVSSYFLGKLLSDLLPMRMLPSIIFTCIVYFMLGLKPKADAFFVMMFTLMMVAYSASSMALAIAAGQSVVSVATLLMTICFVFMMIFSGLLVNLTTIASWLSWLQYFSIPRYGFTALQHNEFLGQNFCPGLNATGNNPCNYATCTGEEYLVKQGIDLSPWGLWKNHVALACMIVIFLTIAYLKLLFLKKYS

[2] = target: T1, Broad substrate specificity ATP-binding cassette transporter ABCG2; assay: Inhibition of ABCG2 (unknown origin) expressed in human HEK293 cells assessed as BODIPY-Prazosin uptake and measured after 2 hrs by FACScan flow cytometry analysis; type: cell-based
[3] = target: T1, Broad substrate specificity ATP-binding cassette transporter ABCG2; assay: Inhibition of ABCG2 (unknown origin) expressed in human NCI-H460 cells mediated pheophorbide A efflux for 2 to 20 hr by fluorescence plate reader analysis; type: cell-based
[4] = target: T1, Broad substrate specificity ATP-binding cassette transporter ABCG2; assay: Inhibition of human ABCG2 expressed in dog MDCK-II-BCRP cells membrane vesicles mediated transport of 3[H]-methotrexate for 5 mins using [3H]-methotrexate as substrate by radiometric scintillation analysis; type: cell membranes, Membrane vesicle
[5] = target: T1, Broad substrate specificity ATP-binding cassette transporter ABCG2; assay: Inhibition of ABCG2 (unknown origin) expressed in human S1M180 cells assessed as intracellular accumulation of rhodamine 123 using rhodamine 123 as substrate by flow cytometry; type: cell-based
[6] = target: T1, Broad substrate specificity ATP-binding cassette transporter ABCG2; assay: Inhibition of ABCG2 (unknown origin) expressed in human S1M180 cells mediated [3H]-mitoxantrone efflux assessed as intracellular [3H]-mitoxantrone level by flow cytometry; type: cell-based
[7] = target: T1, Broad substrate specificity ATP-binding cassette transporter ABCG2; details: saos-2
Description: Inhibition of ABCG2 (unknown origin) expressed in human SAOS-2 cells mediated Hoechst 33342 efflux preincubated with compound for 15 mins followed by substrate addition and measured after 45 mins using Hoechst 33342 as substrate by flow cytometry

[8] = target: T1, Broad substrate specificity ATP-binding cassette transporter ABCG2
Description: Inhibition of ABCG2 (unknown origin) expressed in human MCF7 cells membrane mediated [125I]iodoarylazidoprazosin photolabelling for 5 mins followed by UV light irradiation for 10 mins by radiometric scintillation analysis

[9] = target: T1, Broad substrate specificity ATP-binding cassette transporter ABCG2; assay: Inhibition of human ABCG2 expressing membrane vesicles assessed inhibition of BCRP- mediated transport of [3H]estrone 3-sulfate for 2 mins using [3H]-estrone sulfate as substrate by radiometric scintillation analysis; type: cell membranes, Membrane vesicle
[10] = target: T1, Broad substrate specificity ATP-binding cassette transporter ABCG2; assay: Inhibition of ABCG2 (unknown origin) expressed in human MCF7-VP cells mediated mitoxantrone efflux assessed as intracellular mitoxantrone level and measured after 45 mins by flow cytometry analysis; type: cell-based
[11] = target: T1, Broad substrate specificity ATP-binding cassette transporter ABCG2; assay: Inhibition of ABCG2 (unknown origin) expressed in human HEK293 cells mediated mitoxantrone efflux assessed as intracellular mitoxantrone level and measured after 30 mins by FACSflow cytometry analysis; type: cell-based
[12] = target: T1, Broad substrate specificity ATP-binding cassette transporter ABCG2; assay: Inhibition of ABCG2 (unknown origin) expressed in human MCF7 cells membrane mediated [125I]iodoarylazidoprazosin photolabelling for 10 mins followed by UV light irradiation for 10 mins by radiometric scintillation analysis; type: cell membranes

IC50 [1]: 2 µM
Structure (SMILES): COc1cc(Nc2c(C#N)cnc3cc(OCCCN4CCN(C)CC4)c(OC)cc23)c(Cl)cc1Cl [BOSUTINIB]

IC50 [2]: 1.4 µM
Structure (SMILES): CS(=O)(=O)c1ccc(C(=O)Nc2ccc(Cl)c(-c3ccccn3)c2)c(Cl)c1 [VISMODEGIB]

IC50 [3]: 11.8 µM
Structure (SMILES): COC(=O)[C@H]1[C@H]2C[C@@H]3c4[nH]c5cc(OC)ccc5c4CCN3C[C@H]2C[C@@H](OC(=O)c2cc(OC)c(OC)c(OC)c2)[C@@H]1OC [RESERPINE]

IC50 [4]: 3.1 µM
Structure (SMILES): CC1=NN(c2ccc(C)c(C)c2)C(=O)/C1=N\Nc1cccc(-c2cccc(C(=O)O)c2)c1O [ELTROMBOPAG]

IC50 [5]: 0.2 µM
Structure (SMILES): COc1cc2c(Nc3ccc(Br)cc3F)ncnc2cc1OCC1CCN(C)CC1 [VANDETANIB]

Structure (SMILES): CNC(=O)c1cc(Oc2ccc(NC(=O)Nc3ccc(Cl)c(C(F)(F)F)c3)c(F)c2)ccn1 [REGORAFENIB]
IC50 [6]: 3 µM

IC50 [7]: 3.1 µM
Structure (SMILES): CNC(=O)c1cc(Oc2ccc(NC(=O)Nc3ccc(Cl)c(C(F)(F)F)c3)cc2)ccn1 [SORAFENIB]

IC50 [8]: 3.2 µM
Structure (SMILES): CS(=O)(=O)CCNCc1ccc(-c2ccc3ncnc(Nc4ccc(OCc5cccc(F)c5)c(Cl)c4)c3c2)o1 [LAPATINIB]

IC50 [9]: 0.05 µM
Structure (SMILES): COc1cc(Nc2ncc(F)c(Nc3ccc4c(n3)N(COP(=O)(O)O)C(=O)C(C)(C)O4)n2)cc(OC)c1OC [FOSTAMATINIB]

Structure (SMILES): COc1cc(/C=C/C(=O)CC(=O)/C=C/c2ccc(O)c(OC)c2)ccc1O [CURCUMIN]
IC50 [10]: 1.63 µM

Structure (SMILES): c1ccc2c(c1)OCO2
IC50 [11]: 0.94 µM

Structure (SMILES): COc1cc2nccc(Oc3ccc(NC(=O)Nc4cc(C)on4)c(Cl)c3)c2cc1OC [TIVOZANIB]
IC50 [12]: 0.07 µM
